The source of these data is US8618103B2 (priority 2009, dated 2013).

SMILES strings stand for the structures.

As a reminder, the melting point is the temperature of the solid-liquid transition. `COC(=O)N1CC[C@@H](Nc2ncccc2-c2cnc3[nH]ccc3n2)C1` [Example I-4, (R)-3-[3-(5H-Pyrrolo[2,3-b]pyrazin-2-yl)-pyridin-2-ylamino]-pyrrolidine-1-carboxylic acid methyl ester] gave a melting point of 221 to 224 °C.
In the case of `CS(=O)(=O)N1CC[C@@H](Nc2ncccc2-c2cnc3[nH]ccc3n2)C1` [Example I-5, ((R)-1-Methanesulfonyl-pyrrolidin-3-yl)-[3-(5H-pyrrolo[2,3-b]pyrazin-2-yl)-pyridin-2-yl]-amine], the melting point was 224 to 226 °C.
As for `COC(=O)N1CC[C@H](Nc2ncccc2-c2cnc3[nH]ccc3n2)C1` [Example I-10, (S)-3-[3-(5H-Pyrrolo[2,3-b]pyrazin-2-yl)-pyridin-2-ylamino]-pyrrolidine-1-carboxylic acid methyl ester], the figure is 222 to 225 °C.
With `CS(=O)(=O)N1CC[C@H](Nc2ncccc2-c2cnc3[nH]ccc3n2)C1` [Example I-11, ((S)-1-Methanesulfonyl-pyrrolidin-3-yl)-[3-(5H-pyrrolo[2,3-b]pyrazin-2-yl)-pyridin-2-yl]-amine], the melting point was in the range of 222 to 224 °C.
The figure for `CC(=O)N1CCCCC(Nc2ncccc2-c2cnc3[nH]ccc3n2)C1` (stereo not shown) [Example I-12, 1-{3-[3-(5H-Pyrrolo[2,3-b]pyrazin-2-yl)-pyridin-2-ylamino]-azepan-1-yl}-ethanone] is 100 to 110 °C.
In turn, `COC(=O)N1CCCCC(Nc2ncccc2-c2cnc3[nH]ccc3n2)C1` (stereo not shown) [Example I-13, 3-[3-(5H-Pyrrolo[2,3-b]pyrazin-2-yl)-pyridin-2-ylamino]-azepane-1-carboxylic acid methyl ester] registered a melting point of 90 to 100 °C.
As to `CS(=O)(=O)N1CCCCC(Nc2ncccc2-c2cnc3[nH]ccc3n2)C1` (stereo not shown) [Example I-14, (1-Methane-sulfonyl-azepan-3-yl)-[3-(5H-pyrrolo[2,3-b]pyrazin-2-yl)-pyridin-2-yl]-amine], the melting point is 213 to 216 °C.
The figure for `CCS(=O)(=O)N1CC[C@@H](Nc2ncccc2-c2cnc3[nH]ccc3n2)C1` [Example I-16, ((R)-1-Ethanesulfonyl-pyrrolidin-3-yl)-[3-(5H-pyrrolo[2,3-b]pyrazin-2-yl)-pyridin-2-yl]-amine] is 230 to 232 °C; for `CCCS(=O)(=O)N1CC[C@@H](Nc2ncccc2-c2cnc3[nH]ccc3n2)C1` [Example I-17, [(R)-1-(Propane-1-sulfonyl)-pyrrolidin-3-yl]-[3-(5H-pyrrolo[2,3-b]pyrazin-2-yl)-pyridin-2-yl]-amine] it is 198 to 200 °C.
As for `CC(C)S(=O)(=O)N1CC[C@@H](Nc2ncccc2-c2cnc3[nH]ccc3n2)C1` [Example I-18, [(R)-1-(Propane-2-sulfonyl)-pyrrolidin-3-yl]-[3-(5H-pyrrolo[2,3-b]pyrazin-2-yl)-pyridin-2-yl]-amine], the figure is 187 to 189 °C; as for `CC(C)CS(=O)(=O)N1CC[C@@H](Nc2ncccc2-c2cnc3[nH]ccc3n2)C1` [Example I-19, [(R)-1-(2-Methyl-propane-1-sulfonyl)-pyrrolidin-3-yl]-[3-(5H-pyrrolo[2,3-b]pyrazin-2-yl)-pyridin-2-yl]-amine], 134 to 137 °C; as for `CCC(=O)N1CC[C@@H](Nc2ncccc2-c2cnc3[nH]ccc3n2)C1` [Example I-20, 1-{(R)-3-[3-(5H-Pyrrolo[2,3-b]pyrazin-2-yl)-pyridin-2-ylamino]-pyrrolidin-1-yl}-propan-1-one], 105 to 110 °C.
As for `CCCC(=O)N1CC[C@@H](Nc2ncccc2-c2cnc3[nH]ccc3n2)C1` [Example I-21, 1-{(R)-3-[3-(5H-Pyrrolo[2,3-b]pyrazin-2-yl)-pyridin-2-ylamino]-pyrrolidin-1-yl}-butan-1-one], the figure is 115 to 120 °C.
Turning to `CCCS(=O)(=O)N1C[C@@H](C)C[C@H](Nc2ncccc2-c2cnc3[nH]ccc3n2)C1` [Example I-25, [(3S,5S)-5-Methyl-1-(propane-1-sulfonyl)-piperidin-3-yl]-[3-(5H-pyrrolo[2,3-b]pyrazin-2-yl)-pyridin-2-yl]-amine], the melting point is 178 to 180 °C.
In the case of `CC(C)CCS(=O)(=O)N1CC[C@@H](Nc2ncccc2-c2cnc3[nH]ccc3n2)C1` [Example I-27, [(R)-1-(3-Methyl-butane-1-sulfonyl)-pyrrolidin-3-yl]-[3-(5H-pyrrolo[2,3-b]pyrazin-2-yl)-pyridin-2-yl]-amine], the melting point was 160 to 162 °C.
As for `Cc1ccc(-c2cnc3[nH]ccc3n2)c(NC2CCCN(S(C)(=O)=O)C2)n1` (stereo not shown) [Example I-31, (1-Methane-sulfonyl-piperidin-3-yl)-[6-methyl-3-(5H-pyrrolo[2,3-b]pyrazin-2-yl)-pyridin-2-yl]-amine], the figure is 253 to 255 °C; as for `FC(F)(F)CN1CCC[C@H](Nc2ncccc2-c2cnc3[nH]ccc3n2)C1` [Example I-33, [3-(5H-Pyrrolo[2,3-b]pyrazin-2-yl)-pyridin-2-yl]-[(S)-1-(2,2,2-trifluoro-ethyl)-piperidin-3-yl]-amine], 207 to 209 °C; as for `CCS(=O)(=O)N1CCCC(Nc2nc(C)ccc2-c2cnc3[nH]ccc3n2)C1` (stereo not shown) [Example I-34, (1-Ethane-sulfonyl-piperidin-3-yl)-[6-methyl-3-(5H-pyrrolo[2,3-b]pyrazin-2-yl)-pyridin-2-yl]-amine], 204 to 207 °C.
The figure for `Cc1ccc(-c2cnc3[nH]ccc3n2)c(NC2CCCN(S(=O)(=O)CC(C)(C)C)C2)n1` (stereo not shown) [Example I-36, [1-(2,2-Dimethyl-propane-1-sulfonyl)-piperidin-3-yl]-[6-methyl-3-(5H-pyrrolo[2,3-b]pyrazin-2-yl)-pyridin-2-yl]-amine] is 218 to 220 °C; for `CS(=O)(=O)N1CCCC(Nc2ncccc2-c2cnc3[nH]ccc3n2)CC1` (stereo not shown) [Example I-37, (1-Methane-sulfonyl-azepan-4-yl)-[3-(5H-pyrrolo[2,3-b]pyrazin-2-yl)-pyridin-2-yl]-amine] it is 215 to 217 °C; for `O=S(=O)(CC1CC1)N1CCC[C@H](Nc2ncccc2-c2cnc3[nH]ccc3n2)C1` [Example I-38, ((S)-1-Cyclopropyl-methanesulfonyl-piperidin-3-yl)-[3-(5H-pyrrolo[2,3-b]pyrazin-2-yl)-pyridin-2-yl]-amine] it is 209 to 212 °C.
The figure for `CC(=O)N1CCCC(Nc2nc(C)ccc2-c2cnc3[nH]cc(Cl)c3n2)C1` (stereo not shown) [Example I-39, 1-{3-[3-(7-Chloro-5H-pyrrolo[2,3-b]pyrazin-2-yl)-6-methyl-pyridin-2-ylamino]-piperidin-1-yl}-ethanone] is 254 to 259 °C.
